EP4205737A1, “COMPOSITION FOR PREVENTION, AMELIORATION, OR TREATMENT OF INFLAMMATORY DISEASES OR IMMUNE DISEASES COMPRISING GANCAONIN N AS ACTIVE INGREDIENT” (UNIVERSITY-INDUSTRY COOPERATION GROUP OF KYUNG HEE …, priority 2020, dated 2022)

Columns and labels:
COX-2 [1] = assay: Western blotting of COX-2 in lung of LPS-induced acute lung injury mouse model; format: in vivo, BALB/c mice; settings: mice, 10 mg/kg or 30 mg/kg intraperitoneally, LPS-induced ALI, Western blotting (FIG. 8)
Description: 25 6-week-old female BALB/c mice having a weight of 18g to 20 g were purchased from BioLink (DBL CO., Eumseong, Chungcheongbuk-do, Korea), and reared in the animal laboratory of KyungHee University. To establish an LPS-induced acute lung injury model, all the mice were divided into five groups each group of which consisted of 5 mice, and the five groups were referred to as control, vehicle (only LPS treatment), gancaonin N (10 mg/kg), gancaonin N (30 mg/kg), and dexamethasone (3 mg/kg). Gancaonin N was intraperitoneally injected at a dose of 10 mg/kg or 30 mg/kg, and dexamethasone was intraperitoneally injected at a dose of 3 mg/kg as a positive control group. In addition, the control and vehicle groups were intraperitoneally injected with 4% DMSO in which gancaonin N was dissolved. Then, 10 µg/50 µL of LPS was intratracheally administered to the mice except for the control group one hour later (the control group mice were administered 50 µL of PBS), and the mice were sacrificed 12 hours later.
RAW264.7 cells and A549 cells were dispensed into 6-well plates (1 × 10^6 cells/well) and cultured under conditions of 37°C and 5% CO2. […]
To specifically investigate whether gancaonin N can inhibit pro-inflammatory factors in a mouse model, the protein expression levels of COX-2, IL-1β, and TNF-α were measured by Western blotting as described in Examples 1 to 6 above.

COX-2 [2] = assay: Western blotting of COX-2 in LPS-stimulated RAW264.7 cells; format: cell-based, murine; settings: LPS 1 µg/mL, 5 to 40 µM, as treatment concentration increased (FIG. 2D)
Description: RAW264.7 cells and A549 cells were dispensed into 6-well plates (1 × 10^6 cells/well) and cultured under conditions of 37°C and 5% CO2. After the culturing, the Raw 264.7 cells were treated with 1 µg/mL of lipopolysaccharide (LPS) and the A549 cells were treated with 5 µg/mL of lipopolysaccharide (LPS) and with 5 µM to 40 µM of gancaonin N, and the cells were cultured for 24 hours or 6 hours. Then, the cells were lysed using a lysis buffer. In addition, the left lung extracted from each mouse was lysed using RIPA buffer. SDS-PAGE electrophoresis was performed on the cell and tissue lysates to separate proteins by side, and 5% bovine serum albumin was used for culturing and for blocking antibodies against PGE2 (1:500), IL-1β (1:500), IL-6 (1:500), TNF-α (1:500), i-NOS (1:500), COX-2 (1:1000), P-ERK1/2 (1:1000), ERK1/2 (1:3000), P-p38 (1:1000), p38 (1:3000), NF-κB p65 (1:1000), Lamin B1 (1:1000), and β-actin (1: 5,000).
To investigate the anti-inflammatory effect of gancaonin N, the inventors treated Raw264.7 cells with LPS and Gancaonin N, as described in Examples 1 to 6, and evaluated the expression level of inflammation-inducing factors. Thus, the inhibitory effect of gancaonin N on inflammation-related factors was specifically confirmed.

RAW264.7 cells = assay: Cell viability analysis (MTT), RAW264.7 cells; format: cell-based, murine; settings: Raw264.7 cells, 5, 10, 20, 40 µM, 24 hours, compared to the control group (FIG. 1A)
Description: RAW264.7 murine macrophage cells were purchased from Korean Cell Line Bank (in Seoul, South Korea). A549 human alveolar basal epithelial cells were purchased from American Type Culture Collection (in ATCC, MD, USA). The cells were cultured in DMEM medium (manufactured by Corning Inc., NY, USA) containing 10% FBS (manufactured by Gibco, NY, USA) and 1X antibiotic-antimycotic solution (manufactured by ABAM, Corning Inc., NY, USA) under conditions of 37°C and 5% CO2.
To evaluate the cytotoxicity of gancaonin N, RAW264.7 cells and A549 cells were dispensed into 96-well plates (1 × 10^4 cells/well) and cultured under conditions of 37°C and 5% CO2. After the culturing, the cells were treated with gancaonin N at concentrations of 5, 10, 20, or 40 µM for 24 hours, and MTT solution (5 mg/mL) was added to each well. After adding 100 µL of dimethyl sulfoxide (DMSO, manufactured by Sigma-Aldrich, St. Louis, MO, USA), the absorbance was measured at 540 nm using a microplate reader (manufactured by Bio-Rad Hercules, CA, USA).
To examine the cytotoxicity of gancaonin N, the inventors treated Raw264.7 cells and A549 cells with gancaonin N according to the methods of Examples 1 to 4 and then measured cell viability.

nitric oxide (NO) = assay: Nitric oxide (NO) measurement (Griess reagent) in LPS-stimulated RAW264.7 cells; format: cell-based, murine; settings: pretreated 2 hours before LPS 1 µg/mL, 5 to 40 µM, 24 hours, as treatment concentration increased (FIG. 2A)
Description: Raw264.7 cells and A549 cells were dispensed into 6-well plates (6 × 10^5 cells/well) and cultured under conditions of 37°C and 5% CO2. After the culturing, the cells were treated with 1 µg/mL of lipopolysaccharide (LPS) and with 5 µM to 40 µM of gancaonin N and cultured for 24 hours, and the concentration of NO produced was determined using the cell culture supernatant. The production of NO was measured by reading the absorbance at 540 nm using Griess reagent. Then, a standard curve was drawn using […], and the result value was expressed as […].
To investigate the anti-inflammatory effect of gancaonin N, the inventors pretreated RAW264.7 cells with gancaonin N, 2 hours before stimulation with LPS, and measured the amount of NO production as described in Examples 1 to 5 above to determine change in the amount of NO production according to the concentration of gancaonin N used to treat the cells.

Structure (SMILES): COc1ccc(-c2coc3cc(O)c(CC=C(C)C)c(O)c3c2=O)c(O)c1 [gancaonin N, 5,7-dihydroxy-3-(2-hydroxy-4-methoxyphenyl)-6-(3-methylbut-2-enyl)chromen-4-one]
- protein expression level of COX-2 in lung (COX-2 [1]): significantly reduced
- expression level of protein of COX-2 (COX-2 [2]): significantly decreased
- cell viability (RAW264.7 cells): did not decrease
- production of NO (nitric oxide (NO)): significantly decreased
